What all share (format): in vivo
In experiment [1] the test system is Velvetleaf (Abutilon theophrasti, ABUTH). The experiment in a line: Greenhouse herbicidal effectiveness test, percent inhibition, velvetleaf. An excerpt:
(§1) The herbicidal effectiveness data set forth herein report “inhibition” as a percentage following a standard procedure in the art which reflects a visual assessment of plant mortality and growth reduction by comparison with untreated plants, made by technicians specially trained to make and record such observations. In all cases. a single technician makes all assessments of percent inhibition within any one experiment or trial. Such measurements are relied upon and regularly reported by Monsanto Company in the course of its herbicide business.
(§2) The following procedure was used for testing compositions of the Examples to determine herbicidal effectiveness, except where otherwise indicated.
(§3) Seeds of the plant species indicated were planted in 85 mm square pots in a soil mix which was previously steam sterilized and prefertilized with a 14-14-14 NPK slow release fertilizer at a rate of 3.6 kg/m3. The pots were placed in a greenhouse with sub-irrigation. About one week after emergence, seedlings were thinned as needed, including removal of any unhealthy or abnormal plants, to create a uniform series of test pots.
(§4) The plants were maintained for the duration of the test in the greenhouse where they received a minimum of 14 hours of light per day. If natural light was insufficient to achieve the daily requirement, artificial light with an intensity of approximately 475 microeinsteins was used to make up the difference. Exposure temperatures were not precisely controlled but averaged about 27° C. during the day and about 18° C. during the night. Plants were sub-irrigated throughout the test to ensure adequate soil moisture levels.
(§5) A set of pots was left untreated as a reference against which effects of the treatments could later be evaluated.
(§6) Application of glyphosate compositions was made by spraying with a track sprayer fitted with a 9501E nozzle calibrated to deliver a spray volume of 93 liters per hectare (1/ha) at a pressure of 166 kilopascals (kPa). After treatment, pots were returned to the greenhouse until ready for evaluation.
(§7) Treatments were made using dilute aqueous compositions. These could be prepared as spray compositions directly from their ingredients, or by dilution with water of preformulated concentrate compositions.
(§8) For evaluation of herbicidal effectiveness, all plants in the test were examined by a single practiced technician, who recorded percent inhibition, a visual measurement of the effectiveness of each treatment by comparison with untreated plants.
(§9) Velvetleaf (Abutilon theophrasti, ABUTH) and Japanese millet (Echinochloa crus-galli, ECHCF) plants were grown and treated by the standard procedures given above. […]

Experiment [2] has as its system Prickly sida (Sida spinosa, SIDSP). Put plainly: Greenhouse herbicidal effectiveness test, percent inhibition, prickly sida.
Description: as §1, §2, §3, §4, §5, §6, §7
For evaluation of herbicidal effectiveness, all plants in the test were examined by a single practiced technician, who recorded percent inhibition, a visual measurement of the effectiveness of each treatment by comparison with untreated plants. […]
Prickly sida (Sida spinosa, SIDSP) plants were grown and treated by the standard procedures given above. Applications of spray compositions were made 22 days after planting SIDSP, and evaluation of herbicidal inhibition was done 19 days after application.
Prickly sida (Sida spinosa, SIDSP) plants were grown and treated by the standard procedures given above. Applications of spray compositions were made 23 days after planting SIDSP, and […].
Prickly sida (Sida spinosa, SIDSP) plants were grown and treated by the standard procedures given above. Applications of spray compositions were made 22 days after planting SIDSP, and evaluation of herbicidal inhibition was done 19 days after application. […]

Experiment [3] relates to Japanese millet (Echinochloa crus-galli, ECHCF). The experiment in a line: Greenhouse herbicidal effectiveness test, percent inhibition, Japanese millet. The note with it: for % Inhibition ECHCF: Example 90, evaluation 11 days after application.
Description: as §1, §2, §3, §4, §5, §6, §7, §8, §9

In experiment [4] the test system is plant species indicated in the Example (ABUTH, ECHCF, SIDSP ...). The experiment in a line: Greenhouse herbicidal effectiveness test, stated overall or averaged over the plant species of the Example. As to conditions: statement in the discussion of the Example at the place; rates and comparators as stated there.
Description: as §1
The following procedure was used for testing compositions of the Examples to determine herbicidal effectiveness, except where otherwise indicated. […]
as §5
Application of glyphosate compositions was made by spraying with a track sprayer fitted with a 9501E nozzle calibrated to deliver a spray volume of 93 liters per hectare (1/ha) at a pressure of 166 kilopascals (kPa). After treatment, pots were returned to the greenhouse until ready for evaluation. […]
as §8

Where [5] appears, read: Sida spinosa, 240 h, read-out: % Inhibition SIDSP.
[6] abbreviates: Echinochloa crus-galli, 240 h, read-out: % Inhibition ECHCF.
The mark [7] stands for this setting: Example 90, glufosinate rate 50 g a.i./ha, evaluation 11 days after application.

As for `O=C(O)c1cc(Oc2ccc(C(F)(F)F)cc2Cl)ccc1[N+](=O)[O-]` [Acifluorfen], the inhibition at 25 g/ha in experiment [1] (Abutilon theophrasti, 240 h, Example 83, acifluorfen rate 25 g a.i./ha, evaluated 10 days after application) turned out to be 20%; in experiment [2] (setting [5]), 15%; in experiment [3] (setting [6]), 2%. Moreover, the inhibition at 50 g/ha in experiment [1] (Abutilon theophrasti, 240 h, Example 83, acifluorfen rate 50 g a.i./ha, evaluated 10 days after application) is 32%; in experiment [2] (setting [5]) it was 17%; in experiment [3] (setting [6]), 7%. Moreover, the inhibition at 100 g/ha was 52% in experiment [1] (Abutilon theophrasti, 240 h, Example 83, acifluorfen rate 100 g a.i./ha, evaluated 10 days after application); 35% in experiment [2] (setting [5]); 18% in experiment [3] (setting [6]). The inhibition at 200 g/ha in experiment [1] (Abutilon theophrasti, 240 h, Example 83, acifluorfen rate 200 g a.i./ha, evaluated 10 days after application) is 62%; in experiment [2] (setting [5]), 40%; in experiment [3] (setting [6]), 35%.

Turning to `COC(=O)NS(=O)(=O)c1ccc(N)cc1` [Asulam (technical)], the “% Inhibition ABUTH” value in experiment [1] (asulam rate 400 g a.i./ha, evaluation 14 days after application) came to 17%.

Regarding `COc1c(Cl)ccc(Cl)c1C(=O)O` [Dicamba (technical)], the “% Inhibition SIDSP” value in experiment [2] (dicamba rate 25 g a.i./ha, evaluation 17 days after application) worked out at 30%; in experiment [2] (dicamba rate 50 g a.i./ha, evaluation 17 days after application) it was 40%; in experiment [2] (dicamba rate 100 g a.i./ha, evaluation 17 days after application), 50%; in experiment [2] (dicamba rate 200 g a.i./ha, evaluation 17 days after application), 58%.

Turning to `C[N+](C)(C)CCCNS(=O)(=O)C(F)(F)C(F)(F)C(F)(F)C(F)(F)C(F)(F)C(F)(F)C(F)(F)C(F)(F)F.[I-]` [Fluorad FC-135, 3-(((heptadecafluorooctyl)sulfonyl)amino)-N,N,N-trimethyl-1-propaminium iodide], the “concentration of Fluorad FC-135 which had to be added in tank-mix to Formulation B to bring its herbicidal performance up to that of Formulation C” value in experiment [1] (Example 21, ABUTH, 20 days after application) is around 0.02%; in experiment [2] (Example 21, SIDSP, 20 days after application), around 0.1%; in experiment [3] (Example 21, ECHCF, after application), “approximately 0.25%”. For the same compound, the optimum adjuvant concentration in experiment [1] (Example 25, ABUTH, tank-mix adjuvant for glyphosate as Formulation B, 21 days after application) was found to be 0.2%; in experiment [3] (Example 25, ECHCF, tank-mix adjuvant for glyphosate as Formulation B, 21 days after application), 0.2%.

`CP(=O)(O)CCC(N)C(=O)O` (stereo not drawn) [Glufosinate (technical)]: the “% Inhibition ABUTH” value in experiment [1] (setting [7]) is listed as 0%. The “% Inhibition SIDSP” value is given as 5% in experiment [2] (setting [7]) and 10% in experiment [2] (Example 90, glufosinate rate 100 g a.i./ha, evaluation 11 days after application). The “% Inhibition ECHCF” value in experiment [3] (glufosinate rate 50 g a.i./ha) and in experiment [3] (glufosinate rate 100 g a.i./ha) was 0% each time.

With `O=C(O)CNCP(=O)(O)O` [glyphosate, N-phosphonomethylglycine, reference compound], in experiment [1] (Example 27, average over four glyphosate rates, no excipient, 19 days after application), the “average inhibition of ABUTH” value was determined as 32%.

As to Steareth-20, the “herbicidal effectiveness, overall for the species of the Example, in words” value in experiment [4] is on record as “more effective additives for Formulation B than steareth-10”.

On to ceteareth-30, for which the “herbicidal effectiveness, overall for the species of the Example, in words” value in experiment [4] is listed as “more effective additives for Formulation B than steareth-10”.

The values above are taken from US6475953B1, “Composition and method for treating plants with exogenous chemicals” (Monsanto Technology LLC, priority 1996, dated 2002).
